Data reported in the NIST ThermoML archive (doi:10.1007/s10765-008-0535-5).

Conditions: Liquid, Pycnometric method

FCF [difluoromethane]
Conditions	mass density [kg/m3]
268.15 K, 8268 kPa	1093.5
268.15 K, 8502 kPa	1093.5
269.15 K, 9280 kPa	1093.3
269.15 K, 9512 kPa	1093.3
270.15 K, 10291 kPa	1093.2
270.15 K, 10521 kPa	1093.2
271.15 K, 11302 kPa	1093
271.15 K, 11531 kPa	1093
272.15 K, 12312 kPa	1092.9
272.15 K, 12421 kPa	1092.9
272.15 K, 12540 kPa	1092.9
273.15 K, 13321 kPa	1092.7
273.15 K, 13429 kPa	1092.8
273.15 K, 13551 kPa	1092.7
274.15 K, 14330 kPa	1092.6
274.15 K, 14438 kPa	1092.6
274.15 K, 14560 kPa	1092.6
275.15 K, 15337 kPa	1092.4
275.15 K, 15444 kPa	1092.4
275.15 K, 15568 kPa	1092.4
276.15 K, 16344 kPa	1092.3
276.15 K, 16452 kPa	1092.3
276.15 K, 16577 kPa	1092.3
277.15 K, 17350 kPa	1092.1
277.15 K, 17457 kPa	1092.1
277.15 K, 17583 kPa	1092.1
278.15 K, 18354 kPa	1092
278.15 K, 18462 kPa	1092
278.15 K, 18589 kPa	1092
279.15 K, 19358 kPa	1091.8
279.15 K, 19465 kPa	1091.8
279.15 K, 19595 kPa	1091.8
280.15 K, 20361 kPa	1091.7
280.15 K, 20468 kPa	1091.7
280.15 K, 20598 kPa	1091.7
281.15 K, 21363 kPa	1091.5
281.15 K, 21470 kPa	1091.5
281.15 K, 21601 kPa	1091.5
282.15 K, 22363 kPa	1091.4
282.15 K, 22472 kPa	1091.4
282.15 K, 22602 kPa	1091.4
283.15 K, 23363 kPa	1091.2
283.15 K, 23473 kPa	1091.2
283.15 K, 23603 kPa	1091.2
284.15 K, 24362 kPa	1091.1
284.15 K, 24472 kPa	1091.1
284.15 K, 24606 kPa	1091
285.15 K, 25359 kPa	1090.9
285.15 K, 25470 kPa	1090.9
285.15 K, 25603 kPa	1090.9
286.15 K, 26356 kPa	1090.8
286.15 K, 26466 kPa	1090.8
286.15 K, 26598 kPa	1090.7
287.15 K, 27351 kPa	1090.6
287.15 K, 27461 kPa	1090.6
287.15 K, 27594 kPa	1090.6
288.15 K, 28345 kPa	1090.4
288.15 K, 28454 kPa	1090.4
288.15 K, 28588 kPa	1090.4
289.15 K, 5774 kPa	1015.9
289.15 K, 5835 kPa	1015.9
289.15 K, 29338 kPa	1090.3
289.15 K, 29446 kPa	1090.3
289.15 K, 29581 kPa	1090.3
290.15 K, 6570 kPa	1015.8
290.15 K, 6631 kPa	1015.8
291.15 K, 7365 kPa	1015.7
291.15 K, 7428 kPa	1015.7
292.15 K, 8161 kPa	1015.6
292.15 K, 8224 kPa	1015.5
293.15 K, 8956 kPa	1015.5
293.15 K, 9019 kPa	1015.4
294.15 K, 9752 kPa	1015.3
294.15 K, 9815 kPa	1015.3
295.15 K, 10546 kPa	1015.2
295.15 K, 10610 kPa	1015.2
296.15 K, 11341 kPa	1015.1
296.15 K, 11405 kPa	1015.1
297.15 K, 12135 kPa	1015
297.15 K, 12199 kPa	1014.9
298.15 K, 12929 kPa	1014.9
298.15 K, 12993 kPa	1014.8
299.15 K, 13723 kPa	1014.7
299.15 K, 13787 kPa	1014.7
300.15 K, 14517 kPa	1014.6
300.15 K, 14581 kPa	1014.6
301.15 K, 15309 kPa	1014.5
301.15 K, 15374 kPa	1014.4
302.15 K, 16102 kPa	1014.4
302.15 K, 16167 kPa	1014.3
303.15 K, 16894 kPa	1014.2
303.15 K, 16960 kPa	1014.2
304.15 K, 17685 kPa	1014.1
304.15 K, 17752 kPa	1014.1
305.15 K, 18476 kPa	1014
305.15 K, 18543 kPa	1014
306.15 K, 19267 kPa	1013.9
306.15 K, 19335 kPa	1013.8
307.15 K, 20125 kPa	1013.7
308.15 K, 20848 kPa	1013.6
308.15 K, 20915 kPa	1013.6
309.15 K, 21639 kPa	1013.5
309.15 K, 21704 kPa	1013.4
310.15 K, 22429 kPa	1013.4
310.15 K, 22492 kPa	1013.3
311.15 K, 23217 kPa	1013.3
311.15 K, 23281 kPa	1013.2
312.15 K, 24005 kPa	1013.2
312.15 K, 24068 kPa	1013.1
313.15 K, 24793 kPa	1013
313.15 K, 24855 kPa	1012.9
314.15 K, 25579 kPa	1012.9
314.15 K, 25641 kPa	1012.8
315.15 K, 26364 kPa	1012.8
315.15 K, 26427 kPa	1012.7
316.15 K, 27149 kPa	1012.7
316.15 K, 27212 kPa	1012.6
317.15 K, 27934 kPa	1012.5
317.15 K, 27996 kPa	1012.4
318.15 K, 28719 kPa	1012.4
318.15 K, 28779 kPa	1012.3
